In US7138361B2, “Herbicidal heterocycles” (E. I. du Pont de Nemours and Company, priority 2000, dated 2006):

Tests used:
Assay in all cases: Test C preemergence
Type in all cases: in vivo
Sunflower [1] = conditions: Rate 250 g/ha, scale 0 to 100, 0 no effect, 100 complete control
[2] = test system: woolly cupgrass (Eriochloa villosa); conditions: for Plant response rating (0 to 100), Cupgrass, Woolly: Rate 500 g/ha, visual evaluation after 12 to 14 days
Procedure, shortened: (§1)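 Compounds in non-phytotoxic solvent with surfactant applied preemergence to planted seeds and postemergence to plants at 1- to 4-leaf stage (2–18 cm). Kept in greenhouse 12–14 days, then visually rated against controls on a 0 (no effect) to 100 (complete control) scale.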

[3] = test system: morningglory (Ipomoea hederacea); conditions: for Plant response rating (0 to 100), Morningglory: Rate 500 g/ha, visual evaluation after 12 to 14 days
Procedure, shortened: as §1

Sunflower [4] = conditions: Rate 125 g/ha; scale 0 to 100, 0 no effect, 100 complete control
[5] = test system: crabgrass (Digitaria sanguinalis); conditions: for Plant response rating (0 to 100), Crabgrass: Rate 500 g/ha, visual evaluation after 12 to 14 days
Procedure, shortened: as §1

[6] = test system: lambsquarters (Chenopodium album); conditions: for Plant response rating (0 to 100), Lambsquarters: Rate 500 g/ha, visual evaluation after 12 to 14 days
Procedure, shortened: as §1

[7] = test system: johnsongrass (Sorghum halepense); conditions: for Plant response rating (0 to 100), Johnsongrass: Rate 500 g/ha, visual evaluation after 12 to 14 days
Procedure, shortened: as §1

corn (Zea mays) = conditions: for Plant response rating (0 to 100), Corn: Rate 500 g/ha, visual evaluation after 12 to 14 days
Procedure, shortened: as §1

[8] = test system: cocklebur (Xanthium strumarium); conditions: for Plant response rating (0 to 100), Cocklebur: Rate 500 g/ha, visual evaluation after 12 to 14 days
Procedure, shortened: as §1

[9] = test system: yellow nutsedge (Cyperus esculentus); conditions: for Plant response rating (0 to 100), Nutsedge: Rate 500 g/ha, visual evaluation after 12 to 14 days
Procedure, shortened: as §1

[10] = test system: bermudagrass (Cynodon dactylon); conditions: for Plant response rating (0 to 100 where 0 is no effect and 100 is complete control), Bermudagrass: Rate 500 g/ha, visual evaluation after 12 to 14 days
Procedure, shortened: as §1

[11] = test system: pigweed (Amaranthus retroflexus); conditions: for Plant response rating (0 to 100), Pigweed: Rate 500 g/ha, visual evaluation after 12 to 14 days
Procedure, shortened: as §1

kochia (Kochia scoparia) = conditions: for Plant response rating (0 to 100), Kochia: Rate 500 g/ha, visual evaluation after 12 to 14 days
Procedure, shortened: as §1

[12] = test system: giant foxtail (Setaria faberii); conditions: for Plant response rating (0 to 100), Foxtail, Giant: Rate 500 g/ha, visual evaluation after 12 to 14 days
Procedure, shortened: as §1

[13] = test system: common ragweed (Ambrosia elatior); conditions: for Plant response rating (0 to 100), Ragweed, Common: Rate 500 g/ha, visual evaluation after 12 to 14 days
Procedure, shortened: as §1

Nightshade = test system: Nightshade
[14] = test system: velvetleaf (Abutilon theophrasti); conditions: for Plant response rating (0 to 100), Velvetleaf: Rate 500 g/ha, visual evaluation after 12 to 14 days
Procedure, shortened: as §1

[15] = test system: Surinam grass (Brachiaria decumbens); conditions: for Plant response rating (0 to 100), Surinam grass: Rate 500 g/ha, visual evaluation after 12 to 14 days
Procedure, shortened: as §1

soybean (Glycine max) = conditions: for Plant response rating (0 to 100), Soybean: Rate 500 g/ha, visual evaluation after 12 to 14 days
Procedure, shortened: as §1

[16] = test system: goosegrass (Eleusine indica); conditions: for Plant response rating (0 to 100), Goosegrass: Rate 500 g/ha, visual evaluation after 12 to 14 days
Procedure, shortened: as §1

[17] = Rate 125 g/ha, scale 0 to 100, 0 no effect, 100 complete control
[18] = preemergence, Rate 62 g/ha, scale 0 to 100
[19] = preemergence, Rate 250 g/ha, scale 0 to 100, 0 no effect, 100 complete control
[20] = Rate 250 g/ha, scale 0 to 100, 0 no effect, 100 complete control

CC(C)(C)c1ccn(C2CCN(c3cccc(SC(F)(F)F)c3)C2=O)n1 (stereo not drawn) [Compound 93]
0: Plant response rating, Sunflower (Sunflower [1]) | Plant response rating, Cupgrass, Woolly [2, 18] | Plant response rating, Morningglory [3, 17] | Plant response rating, Morningglory [3, 18] | Plant response rating, Morningglory [3, 19] | Plant response rating, Sunflower (Sunflower [4]) | Plant response rating, Lambsquarters [6, 18] | Plant response rating, Johnsongrass [7, 18] | Plant response rating, Corn (corn (Zea mays); [17]) | Plant response rating, Corn (corn (Zea mays); [18]) | Plant response rating, Corn (corn (Zea mays); [19]) | Plant response rating, Cocklebur [8, 17] | Plant response rating, Cocklebur [8, 18] | Plant response rating, Cocklebur [8, 19] | Plant response rating, Nutsedge [9, 17] | Plant response rating, Nutsedge [9, 18] | Plant response rating (0 to 100), Nutsedge ([9]; preemergence) | Plant response rating, Nutsedge [9, 19] | Plant response rating, Bermudagrass [10, 18] | Plant response rating, Pigweed [11, 18] | Plant response rating, Kochia (kochia (Kochia scoparia); [17]) | Plant response rating, Kochia (kochia (Kochia scoparia); [18]) | Plant response rating, Foxtail, Giant [12, 18] | Plant response rating, Ragweed, Common [13, 17] | Plant response rating, Ragweed, Common [13, 18] | Plant response rating (0 to 100), Ragweed, Common ([13]; preemergence) | Plant response rating, Ragweed, Common [13, 19] | Plant response rating, Nightshade (Nightshade; Rate 62 g/ha, scale 0 to 100) | Plant response rating, Nightshade (Nightshade; [17]) | Plant response rating, Nightshade (Nightshade; [20]) | Plant response rating, Velvetleaf [14, 17] | Plant response rating, Velvetleaf [14, 18] | Plant response rating, Velvetleaf [14, 19] | Plant response rating, Surinam grass [15, 18] | Plant response rating, Soybean (soybean (Glycine max); [17]) | Plant response rating, Soybean (soybean (Glycine max); [18]) | Plant response rating, Soybean (soybean (Glycine max); [19])
20: Plant response rating, Cupgrass, Woolly [2, 17] | Plant response rating (0 to 100), Morningglory ([3]; preemergence) | Plant response rating (0 to 100), Cocklebur ([8]; preemergence) | Plant response rating, Pigweed [11, 17] | Plant response rating, Pigweed [11, 19] | Plant response rating, Foxtail, Giant [12, 17] | Plant response rating, Foxtail, Giant [12, 19] | Plant response rating (0 to 100), Velvetleaf ([14]; preemergence) | Plant response rating (0 to 100), Soybean (soybean (Glycine max); preemergence) | Plant response rating, Goosegrass [16, 18]
100: Plant response rating, Crabgrass [5, 17] | Plant response rating (0 to 100), Crabgrass ([5]; preemergence) | Plant response rating, Crabgrass [5, 19] | Plant response rating (0 to 100), Lambsquarters ([6]; preemergence) | Plant response rating (0 to 100 where 0 is no effect and 100 is complete control), Bermudagrass ([10]; preemergence) | Plant response rating, Bermudagrass [10, 19] | Plant response rating, Goosegrass [16, 17] | Plant response rating (0 to 100), Goosegrass ([16]; preemergence) | Plant response rating, Goosegrass [16, 19]
80: Plant response rating (0 to 100), Cupgrass, Woolly ([2]; preemergence) | Plant response rating, Crabgrass [5, 18] | Plant response rating (0 to 100), Pigweed ([11]; preemergence) | Plant response rating (0 to 100), Kochia (kochia (Kochia scoparia); preemergence)
30: Plant response rating (0 to 100), Corn (corn (Zea mays); preemergence) | Plant response rating, Kochia (kochia (Kochia scoparia); [19]) | Plant response rating, Surinam grass [15, 19]
90: Plant response rating, Lambsquarters [6, 19] | Plant response rating, Bermudagrass [10, 17]
70: Plant response rating, Cupgrass, Woolly [2, 19] | Plant response rating, Lambsquarters [6, 17] | Plant response rating (0 to 100), Surinam grass ([15]; preemergence)
60: Plant response rating (0 to 100), Foxtail, Giant ([12]; preemergence)
10: Plant response rating (0 to 100), Johnsongrass ([7]; preemergence) | Plant response rating, Johnsongrass [7, 19] | Plant response rating, Surinam grass [15, 17]

CCC(C)c1ccn(C2CCN(c3cccc(OC)c3)C2=O)n1 (stereo not drawn) [Compound 95]
50: Plant response rating, Cupgrass, Woolly [2, 18] | Plant response rating, Surinam grass [15, 19]
40: Plant response rating (0 to 100), Corn (corn (Zea mays); preemergence) | Plant response rating, Corn (corn (Zea mays); [19]) | Plant response rating, Surinam grass [15, 17] | Plant response rating, Surinam grass [15, 18]
30: Plant response rating, Johnsongrass [7, 17] | Plant response rating, Johnsongrass [7, 18] | Plant response rating (0 to 100), Soybean (soybean (Glycine max); preemergence)
70: Plant response rating (0 to 100), Nutsedge ([9]; preemergence)
10: Plant response rating, Corn (corn (Zea mays); [17]) | Plant response rating, Corn (corn (Zea mays); [18]) | Plant response rating (0 to 100), Ragweed, Common ([13]; preemergence)
100: Plant response rating, Cupgrass, Woolly [2, 17] | Plant response rating (0 to 100), Cupgrass, Woolly ([2]; preemergence) | Plant response rating, Cupgrass, Woolly [2, 19] | Plant response rating, Crabgrass [5, 17] | Plant response rating, Crabgrass [5, 18] | Plant response rating (0 to 100), Crabgrass ([5]; preemergence) | Plant response rating, Crabgrass [5, 19] | Plant response rating, Lambsquarters [6, 17] | Plant response rating, Lambsquarters [6, 18] | Plant response rating (0 to 100), Lambsquarters ([6]; preemergence) | Plant response rating, Lambsquarters [6, 19] | Plant response rating, Bermudagrass [10, 17] | Plant response rating, Bermudagrass [10, 18] | Plant response rating (0 to 100 where 0 is no effect and 100 is complete control), Bermudagrass ([10]; preemergence) | Plant response rating, Bermudagrass [10, 19] | Plant response rating, Pigweed [11, 18] | Plant response rating, Kochia (kochia (Kochia scoparia); [17]) | Plant response rating, Kochia (kochia (Kochia scoparia); [18]) | Plant response rating (0 to 100), Kochia (kochia (Kochia scoparia); preemergence) | Plant response rating, Kochia (kochia (Kochia scoparia); [19]) | Plant response rating (0 to 100), Foxtail, Giant ([12]; preemergence) | Plant response rating (0 to 100), Surinam grass ([15]; preemergence) | Plant response rating, Goosegrass [16, 17] | Plant response rating, Goosegrass [16, 18] | Plant response rating (0 to 100), Goosegrass ([16]; preemergence) | Plant response rating, Goosegrass [16, 19]
60: Plant response rating, Johnsongrass [7, 19] | Plant response rating (0 to 100), Pigweed ([11]; preemergence)
90: Plant response rating (0 to 100), Johnsongrass ([7]; preemergence)
0: Plant response rating, Sunflower (Sunflower [1]) | Plant response rating, Morningglory [3, 17] | Plant response rating, Morningglory [3, 18] | Plant response rating (0 to 100), Morningglory ([3]; preemergence) | Plant response rating, Morningglory [3, 19] | Plant response rating, Sunflower (Sunflower [4]) | Plant response rating, Cocklebur [8, 17] | Plant response rating, Cocklebur [8, 18] | Plant response rating (0 to 100), Cocklebur ([8]; preemergence) | Plant response rating, Cocklebur [8, 19] | Plant response rating, Nutsedge [9, 17] | Plant response rating, Nutsedge [9, 18] | Plant response rating, Pigweed [11, 17] | Plant response rating, Pigweed [11, 19] | Plant response rating, Foxtail, Giant [12, 17] | Plant response rating, Foxtail, Giant [12, 18] | Plant response rating, Foxtail, Giant [12, 19] | Plant response rating, Ragweed, Common [13, 17] | Plant response rating, Ragweed, Common [13, 18] | Plant response rating, Ragweed, Common [13, 19] | Plant response rating, Nightshade (Nightshade; Rate 62 g/ha, scale 0 to 100) | Plant response rating, Nightshade (Nightshade; [17]) | Plant response rating, Nightshade (Nightshade; [20]) | Plant response rating, Velvetleaf [14, 17] | Plant response rating, Velvetleaf [14, 18] | Plant response rating (0 to 100), Velvetleaf ([14]; preemergence) | Plant response rating, Velvetleaf [14, 19] | Plant response rating, Soybean (soybean (Glycine max); [17]) | Plant response rating, Soybean (soybean (Glycine max); [18]) | Plant response rating, Soybean (soybean (Glycine max); [19])
